As a reminder, the IC50 is the midpoint of a concentration-inhibition curve.

The target of the assay is T1, GST-Plk1 (Homo sapiens, UniProt P53350).
T1 construct: Full-length, active GST-Plk1 was purified from Sf9 insect cells; made in house; host or cells: Sf9 insect cells
T1 sequence (P53350 whole entry): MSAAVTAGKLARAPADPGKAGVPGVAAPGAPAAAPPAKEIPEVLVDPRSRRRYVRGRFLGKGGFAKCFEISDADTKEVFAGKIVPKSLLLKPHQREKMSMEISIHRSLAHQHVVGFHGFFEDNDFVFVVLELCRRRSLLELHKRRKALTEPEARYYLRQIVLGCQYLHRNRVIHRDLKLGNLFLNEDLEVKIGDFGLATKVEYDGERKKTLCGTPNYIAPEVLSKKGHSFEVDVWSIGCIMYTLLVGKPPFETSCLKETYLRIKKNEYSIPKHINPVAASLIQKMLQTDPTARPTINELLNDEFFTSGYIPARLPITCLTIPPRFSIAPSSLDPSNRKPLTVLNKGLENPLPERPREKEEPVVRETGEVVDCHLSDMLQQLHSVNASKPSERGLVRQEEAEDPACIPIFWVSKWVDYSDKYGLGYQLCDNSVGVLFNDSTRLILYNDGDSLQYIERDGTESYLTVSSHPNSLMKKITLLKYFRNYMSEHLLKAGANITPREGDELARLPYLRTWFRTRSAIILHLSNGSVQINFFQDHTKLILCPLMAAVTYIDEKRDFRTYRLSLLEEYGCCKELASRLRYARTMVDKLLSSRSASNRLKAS
In words: Biochemical Characterization Assay: HTRF kinase assay, GST-Plk1 phosphorylation of GST-p53. The settings on record: full-length active GST-Plk1, GST-p53 substrate, ATP, 37° C. for 35 minutes, HTRF signal. Here is the method:
Full-length, active GST-Plk1 was purified from Sf9 insect cells, and full-length GST-p53 was purified in E. coli. Anti-phospho p53 antibody was purchased from Cell Signaling Technology. Europium-conjugated anti-rabbit antibody was purchased from PerkinElmer Life and Analytical Sciences. APC-conjugated anti-GST antibody was purchased from Prozyme.
To two microliters of compound (0.6 nM-4 mM) in DMSO or plain DMSO for control wells, 38 microliters of 20 mM HEPES pH 7, 50 mM NaCl, 10 mM MgCl2, 0.5 mM TCEP, 0.1 mM sodium orthovanadate, 0.1 mg/ml BSA, and 0.05% Triton X-100 (Kinase Assay Buffer) were added. Eight microliters of the compound solution were added to a 384-well black microtiter plate, followed by six microliters of GST-p53 (17 ug/ml) and ATP (333 uM) in Kinase Assay Buffer. Six microliters of GST-Plk1 (3 ug/ml) in Kinase Assay Buffer were then added and the solution incubated at 37° C. for 35 minutes. Six microliters of solution containing 43 mM EDTA to stop the reaction and a 1:600 dilution of anti-phospho-p53 antibody in 20 mM HEPES pH 7, 50 mM NaCl, and 0.5 mg/ml BSA (Antibody Binding Buffer) were added and the solution incubated at 37° C. for 30 minutes. Six microliters of solution containing 9 nM europium-conjugated anti-rabbit antibody and 120 nM APC-conjugated anti-GST antibody in Antibody Binding Buffer were then added and the mixture incubated at room temperature for 1.5 hours. The HTRF signal was read on the Envision reader (PerkinElmer Life and Analytical Sciences).
(In general: Time-resolved FRET reads energy transfer from a long-lived donor to a nearby acceptor.)
For the compound “2-(5-Methoxy-benzoimidazol-1-yl)-4-phe-nyl-thiazole-5-car-boxylic acid; compoundwith 2-(6-methoxy-benzoimidazol-1-yl)-4-phenyl-thiazole-5-carboxylic acid [Example 15]”, 226 nM corresponded to half-maximal inhibition (IC50).

Compound `COc1cc2ncn(-c3nc(-c4cccc(Cl)c4)c(C(=O)Nn4cnnc4)s3)c2cc1OC` [Example 57, 4-(3-Chloro-phenyl)-2-(5,6-dimethoxy-benzoimidazol-1-yl)-thiazole-5-carboxylic acid [1,2,4]triazol-4-ylamide] displayed a 50% inhibitory concentration (IC50) of 344 nM.

Regarding “2-(5-Methoxy-6-methylbenzoimidazol-1-yl)-4-phenylthiazole-5-carboxylic acid and 2-(6-methoxy-5-methylbenzoimidazol-1-yl)-4-phenylthiazole-5-carboxylic acid [Example 59]”, it took 826 nM to reach half-maximal inhibition (IC50).

On to `COc1cc2ncn(-c3nc(-c4ccccc4)c(C(=O)Nc4ccccc4)s3)c2cc1OC` [Example 38, 2-(5,6-Dimethoxy-benzoimidazol-1-yl)-4-phenyl-thiazole-5-carboxylic acid phenylamide], for which the 50% inhibitory concentration (IC50) is 606 nM.

The compound `COc1cc2ncn(-c3nc(-c4cccc(Cl)c4)c(C(N)=O)s3)c2cc1OC` [Example 36, 4-(3-Chloro-phenyl)-2-(5,6-dimethoxy-benzoimidazol-1-yl)-thiazole-5-carboxylic acid amide] registered an IC50 of 431 nM.

The compound `COc1cc2ncn(-c3nc(-c4cccnc4)c(C(=O)O)s3)c2cc1OC` [Example 33, 2-(5,6-Dimethoxy-benzoimidazol-1-yl)-4-pyridin-3-yl-thiazole-5-carboxylic acid] gave an IC50 of 4410 nM.

Turning to `COc1cc2ncn(-c3nc(-c4ccc(F)c(F)c4)c(C(=O)O)s3)c2cc1OC` [Example 47, 4-(3,4-Difluoro-phenyl)-2-(5,6-dimethoxy-benzoimidazol-1-yl)-thiazole-5-carboxylic acid], the IC50 came out at 542 nM.

The compound `COc1cc2ncn(-c3nc(-c4ccccc4)c(C(N)=O)s3)c2cc1OC` [Example 6, 2-(5,6-Dimethoxy-benzoimidazol-1-yl)-4-phenyl-thiazole-5-carboxylic acid amide] showed an IC50 of 1380 nM.

Take `COc1cc2ncn(-c3nc(-c4ccc(C)cc4)c(C(=O)O)s3)c2cc1OC` [Example 26, 2-(5,6-Dimethoxy-benzoimidazol-1-yl)-4-p-tolyl-thiazole-5-carboxylic acid]: inhibition was half-maximal at 657 nM (IC50).

Compound `COc1cc2ncn(-c3nc(-c4ccccc4)c(-c4nnn[nH]4)s3)c2cc1OC` [Example 12, 5,6-Dimethoxy-1-[4-phenyl-5-(1H-tetrazol-5-yl)-thiazol-2-yl]-1H-benzoimidazole] displayed a half-inhibitory concentration (IC50) of 1100 nM.

`COc1cccc(-c2nc(-n3cnc4cc(OC)c(OC)cc43)sc2C(=O)O)c1` [Example 20, 2-(5,6-Dimethoxy-benzoimidazol-1-yl)-4-(3-methoxy-phenyl)-thiazole-5-carboxylic acid] showed an IC50 of 127 nM.

Regarding `COc1cc2ncn(-c3nc(-c4ccc(Cl)c(Cl)c4)c(C(=O)O)s3)c2cc1OC` [Example 23, 4-(3,4-Dichloro-phenyl)-2-(5,6-dimethoxy-benzoimidazol-1-yl)-thiazole-5-carboxylic acid], the IC50 was determined as 216 nM.

As to `COCCOc1cc2ncn(-c3nc(-c4ccccc4)c(C(=O)O)s3)c2cc1OCCOC` [Example 48, 2-[5,6-Bis-(2-methoxy-ethoxy)-benzoimidazol-1-yl]-4-phenyl-thiazole-5-carboxylic acid], the midpoint of inhibition, the IC50, lay at 819 nM.

For `COc1cc2ncn(-c3nc(-c4cccc(C(C)C)c4)c(C(=O)O)s3)c2cc1OC` [Example 24, 2-(5,6-Dimethoxy-benzoimidazol-1-yl)-4-(3-isopropyl-phenyl)-thiazole-5-carboxylic acid], the IC50 was 68 nM.

`COc1cc2ncn(-c3nc(-c4cccc(Cl)c4)c(C(=O)Nc4nccs4)s3)c2cc1OC` [Example 56, 4-(3-Chloro-phenyl)-2-(5,6-dimethoxy-benzoimidazol-1-yl)-thiazole-5-carboxylic acid thiazol-2-ylamide] displayed a 50% inhibitory concentration (IC50) of 252 nM.

Compound `COc1cc2ncn(-c3nc(-c4cccc(Cl)c4)c(C(=O)NNC(=O)c4cccs4)s3)c2cc1OC` [Example 53, Thiophene-2-carboxylic acid N′-[4-(3-chloro-phenyl)-2-(5,6-dimethoxybenzoimidazol-1-yl)-thiazole-5-carbonyl]-hydrazide] registered an IC50 of 18 nM.

With `O=C(O)c1sc(-n2cnc3ccccc32)nc1-c1ccccc1` [Example 2, 2-(Benzoimidazol-1-yl)-4-phenylthiazole-5-carboxylic acid], 772 nM corresponded to half-maximal inhibition (IC50).

Turning to `COc1cc2ncn(-c3nc(-c4cc(Cl)cc(Cl)c4)c(C(=O)O)s3)c2cc1OC` [Example 41, 4-(3,5-Dichloro-phenyl)-2-(5,6-dimethoxy-benzoimidazol-1-yl)-thiazole-5-carboxylic acid], the half-maximal inhibitory concentration (IC50) worked out at 66 nM.

`COc1cc2ncn(-c3nc(-c4cccc(C(=O)N(C)C)c4)c(C(=O)O)s3)c2cc1OC` [Example 52, 2-(5,6-Dimethoxy-benzoimidazol-1-yl)-4-(3-dimethylcarbamoyl-phenyl)-thiazole-5-carboxylic acid]: the IC50 was 8870 nM.

As to `COc1ccc(-c2nc(-n3cnc4cc(OC)c(OC)cc43)sc2C(=O)O)cc1` [Example 28, 2-(5,6-Dimethoxy-benzoimidazol-1-yl)-4-(4-methoxy-phenyl)-thiazole-5-carboxylic acid], the concentration for half-maximal inhibition (IC50) worked out at 856 nM.

Turning to “2-(5-Chloro-6-methylbenzoimidazol-1-yl)-4-phenylthiazole-5-carboxylic acid and 2-(6-chloro-5-methylbenzoimidazol-1-yl)-4-phenylthiazole-5-carboxylic acid [Example 16]”, it took 1170 nM to reach half-maximal inhibition (IC50).

Consider `CCNC(=O)c1sc(-n2cnc3cc(OC)c(OC)cc32)nc1-c1ccccc1` [Example 11, 2-(5,6-Dimethoxy-benzoimidazol-1-yl)-4-phenyl-thiazole-5-carboxylic acid ethylamide], for which the IC50 was 916 nM.

`COc1cc2ncn(-c3nc(-c4ccc(C(F)(F)F)c(Cl)c4)c(C(=O)O)s3)c2cc1OC` [Example 45, 4-(3-Chloro-4-trifluoromethyl-phenyl)-2-(5,6-dimethoxy-benzoimidazol-1-yl)-thiazole-5-carboxylic acid] yielded an IC50 of 354 nM.

Regarding `COc1cc2ncn(-c3nc(-c4cccc(Cl)c4)c(C(=O)Nc4cc[nH]c(=O)n4)s3)c2cc1OC` [Example 60, 4-(3-Chloro-phenyl)-2-(5,6-dimethoxy-benzoimidazol-1-yl)-thiazole-5-carboxylic acid (2-oxo-1,2-dihydro-pyrimidin-4-yl)-amide], the IC50 is 4430 nM.

`COc1cccc(NC(=O)c2sc(-n3cnc4cc(OC)c(OC)cc43)nc2-c2cccc(Cl)c2)c1` [Example 55, 4-(3-Chloro-phenyl)-2-(5,6-dimethoxy-benzoimidazol-1-yl)-thiazole-5-carboxylic acid (3-methoxy-phenyl)-amide] had an IC50 of 250 nM.

In turn, “2-(8H-5,7-Dioxa-1,3-diaza-cyclopenta[b]naphthalen-3-yl)-4-phenyl-thiazole-5-carboxylic acid and 2-(8H-5,7-Dioxa-1,3-diaza-cyclopenta[b]naphthalen-1-yl)-4-phenyl-thiazole-5-carboxylic acid [Example 9]” came in with an IC50 of 2620 nM.

`COc1cc2ncn(-c3nc(-c4ccc(F)c(Cl)c4)c(C(=O)O)s3)c2cc1OC` [Example 19, 4-(3-Chloro-4-fluoro-phenyl)-2-(5,6-dimethoxy-benzoimidazol-1-yl)-thiazole-5-carboxylic acid] had an IC50 of 87 nM.

`COc1cc2ncn(-c3nc(-c4ccccc4O)c(C(=O)O)s3)c2cc1OC` [Example 30, 2-(5,6-Dimethoxy-benzoimidazol-1-yl)-4-(2-hydroxy-phenyl)-thiazole-5-carboxylic acid] came in with a concentration for half-maximal inhibition (IC50) of 275 nM.

In turn, `O=C(O)c1sc(-n2cnc3cccc(O)c32)nc1-c1ccccc1` [Example 61, 2-(7-Hydroxy-benzoimidazol-1-yl)-4-phenyl-thiazole-5-carboxylic acid] yielded a concentration for half-maximal inhibition (IC50) of 4680 nM.

Compound “2-[5-(2-Methoxy-ethoxy)-benzo-imidazol-1-yl]-4-phenyl-thiazole-5-carboxylic acid;compound with 2-[6-(2-meth-oxy-ethoxy)-benzo-imidazol-1-yl]-4-phenyl-thiazole-5-carboxylic acid [Example 63]” registered an IC50 of 526 nM.

`COc1cc2ncn(-c3nc(-c4ccc5c(c4)OCCO5)c(C(=O)O)s3)c2cc1OC` [Example 50, 4-(2,3-Dihydro-benzo[1,4]dioxin-6-yl)-2-(5,6-dimethoxy-benzoimidazol-1-yl)-thiazole-5-carboxylic acid]: inhibition was half-maximal at 2340 nM (IC50).

`COc1cc2ncn(-c3nc(-c4ccccc4)c(C(=O)NC4CC4)s3)c2cc1OC` [Example 13, 2-(5,6-Dimethoxy-benzoimidazol-1-yl)-4-phenyl-thiazole-5-carboxylic acid cyclopropylamide] returned an IC50 of 3310 nM.

The record behind these values is patent publication US7504513B2, “Thiazolyl-benzimidazoles” (Hoffman-La Roche Inc., priority 2006, dated 2009).
